Columns and labels:
sang humain [1] = assay: In vitro haemocompatibility: direct action on blood, overall observation
Protocol: On a recherché si les microémulsions selon l'invention avaient une action sur le sang humain en effectuant un thromboélastogramme, en mesurant le temps de thrombine diluée et en évaluant l'hémolyse.
(§1) • le sang humain était du sang de sujets normaux, prélevé le jour de l'essai, en flacon siliconé, et sur citrate à 9 %, dans le rapport du 1/20; • les produits (microémulsions ou témoin) mis en présence de ce sang, en proportions variables, ont permis, après 10 minutes d'incubation à la température du laboratoire, de pratiquer un thromboélastogramme sur sang total, afin de mettre en évidence une action éventuelle sur la coagulation globale selon le mode opératoire décrit par C. RABY dans Biologie des Hémorragies et des Thromboses 1 vol., Masson et Cie, Edit. Paris 1966, p. 187; • un temps de thrombine diluée a été effectué sur les plasmas des sangs ayant été en contact avec les microémulsions selon l'invention pendant 30 minutes à la température du laboratoire selon le mode opératoire décrit par C. RABY à la page 119 de l'ouvrage cité ci-dessus.
(§2) Cette émulsion, mise en présence de quatre échantillons de sang humain, à raison de 0,1 ml pour 0,9 ml de sang, a permis d'effectuer les essais définis ci-dessus.

sang humain [2] = assay: Diluted thrombin time on plasma of blood put in contact with the products; type: biochemical; details: summary
Protocol: as §1
Dans la détermination du temps de thrombine on a utilisé de l'eau physiologique comme témoin.

sang humain [3] = assay: Thromboelastogram on whole blood; details: after recalcification, emulsion with ethanol, 10 minutes incubation
Protocol: as §1, §2

[4] = Cloud point of the surfactant; type: physicochemical
[5] = Solubility and dispersion of the surfactant in physiological saline; type: physicochemical
Protocol: A des fins de comparaison, on a également utilisé les microémulsions ci-dessus d'une part en présence d'éthanol et d'autre part en l'absence d'éthanol.
En présence d'éthanol (VN), une solution limpide a été obtenue avec l'agent tensio-actif. Celle-ci, ajoutée dans les proportions de 0,2 ml à 1,8 ml d'eau physiologique, a donné, après agitation, une émulsion laiteuse, instable, s'éclaircissant en 15 minutes environ, tant à la température du laboratoire qu'à 37 °C.

sang humain [6] = assay: Haemolysis evaluated on plasma after centrifugation; type: cell-based; details: plasma after centrifugation of blood at 2 000 g for 15 minutes
Protocol: as §1
L'hémolyse a été évaluée sur ces plasmas après centrifugation du sang à 2 000 g pendant 15 minutes.

[7] = emulsion with ethanol, 0,1 ml for 0,9 ml blood
[8] = ethanol solution, 0,2 ml in 1,8 ml eau physiologique, laboratory temperature and 37 °C

## OCCOCCOCCOCCOCCOCCOCC(F)(F)C(F)(F)C(F)(F)C(F)(F)C(F)(F)C(F)(F)C(F)(F)F [C7F15CH2(OC2H4)6OH]
Sang humain [1]; [7]
  action directe sur du sang normal: Aucune action directe
  fluidité: n'a pas été altérée
Sang humain [1]; summary
  effet in vitro sur le sang humain, non coagulé: sans effet
Sang humain [2]
  activité semblable à la thrombine: ne produisent pas
Sang humain [3]
  amplitude « amx »: diminution
  constante « r »: léger raccourcissement
  « k: allongement
[4]
  point de trouble: < 0 °C
[5]
  soluble dans les solutés physiologiques: n'est pas soluble
[5]; [8]
  stabilité de l'émulsion: instable
  temps d'éclaircissement de l'émulsion: ~15 min
Sang humain [6]
  hémolyse: aucune trace
Sang humain [6]; listed as agent tensio-actif seul
  hémolyse: absence
